The source of these data is patent publication EP2753300B1, “COMBINATION OF CARRAGEENAN AND C-GLYCOSIDE AND USES THEREOF” (L'Oréal, priority 2011, dated 2013).

This experiment has as its system épidermes reconstruits d'Episkin. The experiment is described as follows: Maturation of the cornified envelope: count of mature envelopes (involucrin immunolabelling / Nile Red) after 7 days of treatment of reconstructed epidermis. The class given is cell-based. Particulars: 168 h; C-glycoside 2,5% (p/v) alone; 30µl at J7, J9, J10, J13; read-out J14; read-out: augmentation du taux d'enveloppes cornées matures par rapport au témoin eau (Moy). The text has this:
Les épidermes reconstruits d'Episkin ont été utilisés pour évaluer l'impact de molécules sur la maturation de l'enveloppe cornée.
Les Episkin J7 ont été cultivés avec le carraghénane et les associations carraghénane + C-BETA-D-XYLOPYRANOSIDE-2-HYDROXY-PROPANE (HYDROXYPROPYL TETRAHYDROPYRANTRIOL) pendant 7 jours. Après isolement du stratum, les enveloppes cornées sont extraites.
Trois types d'enveloppes cornées, matures, intermédiaires et immatures sont identifiés et comptées par un logiciel d'analyse d'image développé spécifiquement. […]
Les lames immunomarquées sont visionnées sous microscope (DM6000B Leica) suivant 2 modes d'observation : contraste de phase et fluorescence.
Le contraste de phase fournit une image en niveau de gris nous permettant de visualiser l'ensemble des cellules présentes dans le champ. Le mode fluorescence (jeu de filtercube) est utilisé pour visualiser les fluorochromes fixées à l'échantillon : • Le Nile Red est une sonde fluorescente permettant de localiser les zones hydrophobes plus particulièrement les lipides. […]

Each structure is given as a SMILES string.

For `CC(O)C[C@@H]1OC[C@@H](O)[C@H](O)[C@H]1O` (stereo partly drawn) [C-glycoside, C-β-D-xylopyranoside-2-hydroxy-propane], the activation at 25000 µg/mL worked out at 22%.
